SMILES strings stand for the structures. Where a name gives a salt, the structure may show the parent alone.

What all share (type): physicochemical
Series [1] is described as follows: Hygroscopy by exposure to an atmosphere of 95% RH. On the procedure: Crystalline forms A of the hydrochloride and tartrate salts of Compound I were prepared according to the methodology described in Examples 1 and 4.
The samples were tested for hygroscopy by exposure to an atmosphere of 95% RH.

Series [2] in a line: Temperature stability, solid state, 1 week 80° C./75% relative humidity. To be noted: for Decomposition products (%) / Discoloration / Change in XRPD: 1 week 80° C./75% relative humidity; for Change in XRPD: Bulk (XRPD). On the procedure: (§1) Crystalline forms A of the hydrochloride and tartrate salts of Compound I were prepared according to the methodology described in Examples 1 and 4. Stability against temperature and light were then measured as described below.
(§2) Temperature stability was tested by measuring decomposition and colour change caused by placing the samples in an airtight container for 1 week at 80° C. (in bulk form and as a 1% component in two mixtures) and in an identical container for 1 week at 80° C. and at a relative humidity of 75%. Where a change in XRPD was observed, the temperature of the phase transition was measured using differential scanning […] (DSC).

The nature of series [3]: Light stability, Xenon light approx. 1200 kLuxh. To be noted: for Decomposition products (%): Bulk (HPLC); for Change in XRPD: Bulk (XRPD). On the procedure: as §1
Light stability was tested by measuring decomposition and colour change following exposure to the sample to 1200 kiloLuxhours from a Xenon light.

Series [4] can be described thus: Temperature stability, solid state, 1 week 80° C., tight container. To be noted: for resistance to decomposition at elevated temperatures: summary of Table 5. The method, then: as §1, §2
Where [5] appears, read: 1% in mixture of Lactose 200 mesh (78.5%), corn starch (20%), aerosil 200 (0.5%), magnesium stearate (1%).
Setting [6] is: 1% in mixture of Mannitol 60 (50%), avicel PH 101 (43%), crospovidone (5%), aerosil (1%), magnesium stearate (1%).
The mark [7] stands for this setting: 1 week 80° C., tight container, 1% in mixture of Lactose 200 mesh (78.5%), corn starch (20%), aerosil 200 (0.5%), magnesium stearate (1%).
Where [8] appears, read: 1 week 80° C., tight container, 1% in mixture of Mannitol 60 (50%), avicel PH 101 (43%), crospovidone (5%), aerosil (1%), magnesium stearate (1%).
Setting [9] is: Solid state, 1 week 80° C., tight container, Bulk (HPLC).
The mark [10] stands for this setting: Solid state, 1 week 80° C., tight container, Bulk (XRPD, DSC).

With `CCc1cc(/C(C)=N/OCc2ccc(C3CCCCC3)c(C(F)(F)F)c2)ccc1CN1CC(C(=O)O)C1` [Form A of hydrochloride salt, 1-(4-{1-[(E)-4-Cyclohexyl-3-trifluoromethyl-benzyloxyimino]-ethyl}-2-ethyl-benzyl)-azetidine-3-carboxylic acid], the hygroscopy entry in series [1] is on record as “low hygroscopy”. Further, in series [1], the moisture uptake is listed as 0.61%. In addition, the “Decomposition products (%)” value in series [2] (setting [5]) stood at 95.2%; in series [2] (setting [6]), 95.8%; in series [2] (Solid state, Bulk (HPLC)), 91.5%; in series [3] it was 1.1%; in series [4] (setting [7]), 94.8%; in series [4] (setting [8]), 92.7%. Moreover, the “Decomposition products (%)” value in series [4] (setting [9]) worked out at 11.5%; in series [4] (Unstressed (1 week)), 1.1%. The Discoloration result in series [2] (setting [5]) is “Strong”; in series [2] (setting [6]), “Strong”; in series [2] (Solid state, Bulk), “Strong”; in series [4] (setting [7]), “Strong”; in series [4] (setting [8]), “Strong”. The figures for the “Change in XRPD” value in series [2] (Solid state), in series [3] and in series [4] (setting [10]) were “Melted glass”, “No change” and “No change”, respectively. Also, in series [4], the “resistance to decomposition at elevated temperatures” value is given as “good resistance to decomposition”.

On to `CCc1cc(/C(C)=N/OCc2ccc(C3CCCCC3)c(C(F)(F)F)c2)ccc1CN1CC(C(=O)O)C1` [Form A of tartrate salt, 1-(4-{1-[(E)-4-Cyclohexyl-3-trifluoromethyl-benzyloxyimino]-ethyl}-2-ethyl-benzyl)-azetidine-3-carboxylic acid], for which the hygroscopy result in series [1] is given as “slightly hygroscopic”. The same compound came in with a moisture uptake in series [1] of 2.49%. Also, the “Decomposition products (%)” value in series [2] (setting [5]) is recorded as 70.9%; in series [2] (setting [6]) it was 93.2%; in series [2] (Solid state, Bulk (HPLC)), 18.0%; in series [3], 0.8%; in series [4] (setting [7]), 23.8%; in series [4] (setting [8]), 37.0%. The figures for the “Decomposition products (%)” value in series [4] (setting [9]) and in series [4] (Unstressed (1 week)) were 8.8% and 0.8%, respectively. Also, the Discoloration result is on record as “Strong” in series [2] (setting [5]); “Medium” in series [2] (setting [6]); “Strong” in series [2] (Solid state, Bulk). Further, the “Change in XRPD” value is given as “Melted glass” in series [2] (Solid state), “No change” in series [3] and “Changed” in series [4] (setting [10]). For the same compound, the “resistance to decomposition under conditions of high humidity and when mixed with representative pharmaceutical compositions” value in series [2] (summary of Table 5, compared with the hydrochloride form) is reported as “superior resistance to decomposition”. Besides, the “temperature of the phase transition (DSC)” value in series [4] (Solid state, 1 week 80° C., tight container, Bulk (XRPD, DSC), measured where XRPD changed) was determined as 136.3 °C. The “resistance to decomposition at elevated temperatures” value in series [4] was “good resistance to decomposition”.

Values taken from patent publication US8486930B2, “Salts” (Novartis AG, priority 2008, dated 2013).
